What is called inhibition is the percentage by which the read-out fell short of the control.

Each structure is given as a SMILES string. Calls of active or inactive are those of the source. The rule behind the calls is not given here.

Format in all cases: cell membranes
In test [1] the target is T1, GABA-A receptor; alpha-1/beta-3/gamma-2 (Homo sapiens) (UniProt P14867+P18507+P28472). As to the kind of experiment: Effect on [3H]muscimol binding to full length human N-terminal flag-tagged alpha1-beta3-C-terminal 1D4-tagged gamma2 GABAA receptor extracted from Tetracycline-resistant HEK293 cell membrane assessed as fold change in [3H]muscimol binding at 300 uM incubated for 30 mins. The settings on record: filed as modulator.

Test [2] has as its target T1, GABA-A receptor; alpha-1/beta-3/gamma-2 (Homo sapiens). Put plainly: Inhibition of R-mTFD-MPAB-induced [3H]muscimol binding to full length human N-terminal flag-tagged alpha1-beta3-C-terminal 1D4-tagged gamma2 GABAA receptor extracted from Tetracycline-resistant HEK293 cell membrane assessed as fold change at 300 uM incubated for 30 mins. The settings on record: filed as modulator.

For test [3] the target is unchanged. Put plainly: Modulation of [3H]flunitrazepam binding to full length human N-terminal flag-tagged alpha1-beta3-C-terminal 1D4-tagged gamma2 GABAA receptor extracted from Tetracycline-resistant HEK293 cell membrane assessed as fold change in [3H]flunitrazepam binding at 300 uM incubated for 30 mins. The settings on record: filed as modulator.
For test [4] the target is unchanged. As to the kind of experiment: Inhibition of [3H]flunitrazepam binding to full length human N-terminal flag-tagged alpha1-beta3-C-terminal 1D4-tagged gamma2 GABAA receptor extracted from Tetracycline-resistant HEK293 cell membrane assessed as reduction in [3H]flunitrazepam binding at 300 uM incubated for 30 mins relative to control.
For test [5] the target is unchanged. Put plainly: Effect on [3H]muscimol binding to full length human N-terminal flag-tagged alpha1-beta3-C-terminal 1D4-tagged gamma2 GABAA receptor extracted from Tetracycline-resistant HEK293 cell membrane assessed as [3H]muscimol binding at 300 uM incubated for 30 mins relative to control.
Test [6] shares this target. Put plainly: Inhibition of R-mTFD-MPAB-induced [3H]muscimol binding to full length human N-terminal flag-tagged alpha1-beta3-C-terminal 1D4-tagged gamma2 GABAA receptor extracted from Tetracycline-resistant HEK293 cell membrane at 300 uM incubated for 30 mins relative to control.

As to `CN1C(=O)NC(=O)[C@]2(CCc3ccccc32)C1=O`, the fold change (FC) in test [1] amounted to 0.16; in test [2] it was 0.67; in test [3] it was 0.67. The inhibition in test [4] was determined as 12%.
As for `CC1CC2(C(=O)NC(=O)NC2=O)c2ccccc21` (stereo in doubt; 11g-1), the fold change (FC) in test [1] worked out at 0.06; in test [2], 0.96.
Take `COc1ccc2c(c1)C1(CC2)C(=O)NC(=O)N(C)C1=O` (stereo in doubt; 7h-1): the fold change (FC) was determined as 0.36 in test [1], 1.06 in test [2] and 0.55 in test [3]. Further, the inhibition in test [4] came to 45%.
Regarding `CN1C(=O)NC(=O)C2(CCCCc3ccccc32)C1=O` (stereo in doubt; 3h-2), the fold change (FC) was found to be 0.1 in test [1] and 0.98 in test [2].
The matching figures for `O=C1NC(=NO)NC(=O)C12CCc1ccccc12` (stereo not given): 0.07 and 0.66.
`N#CSC1CC2(C(=O)NC(=O)NC2=O)c2ccccc21` (stereo in doubt; 1y-1): the fold change (FC) in test [1] was determined as 0.2; in test [2], 0.61.
Turning to `CC(C)c1ccc2c(c1)C1(CC2)C(=O)NC(=S)NC1=O`, the fold change (FC) is 0.54 in test [1] and 0.87 in test [2]. The Activity in test [5] was less than 10%. The compound also displayed an inhibition in test [6] of more than 40%.
For the compound `CCC1(c2ccccc2)C(=O)NC(=O)NC1=O`, the fold change (FC) was 0.43 in test [1] and 0.88 in test [2]. Also, in test [5] (filed as modulator), the Activity is 43%. For the same compound, the inhibition in test [6] was found to be 12%.
Turning to `CN1C(=O)N(C)C(=O)C2(CCc3ccccc32)C1=O`, the fold change (FC) in test [1] was 0.07; in test [2] it was 0.98.
Take `N=C1NC(=O)C2(CCc3ccc(Cl)cc32)C(=O)N1` (stereo not given): the fold change (FC) in test [1] came to 0.02; in test [2], 0.53. Moreover, the Activity in test [5] is less than 10%. This compound also returned an inhibition in test [6] of more than 40%.
The matching figures for `Cc1ccc2c(c1)C1(CC2)C(=O)NC(=N)NC1=O` (stereo not given): -0.09, 0.36, less than 10% and more than 40%.
For the compound `CCN1C(=O)NC(=O)C2(CCc3ccccc32)C1=O` (stereo in doubt; 1i-2), the figures for the fold change (FC) in test [1] and in test [2] were 0.11 and 0.86, respectively.
`NC1CC2(C(=O)NC(=O)NC2=O)c2ccccc21` (racemic): the fold change (FC) came to 0.1 in test [1] and 0.81 in test [2]. Moreover, the result in test [5] was inactive. This compound also showed an inhibition in test [6] of 19%.
In the case of `NN=C1NC(=O)C2(CCc3ccccc32)C(=O)N1` (stereo not given), the fold change (FC) is -0.02 in test [1] and 0.66 in test [2].
In the case of `CCCN1C(=O)NC(=O)C2(CCc3ccccc32)C1=O` (stereo in doubt; 1j-2), the fold change (FC) in test [1] amounted to 0.05; in test [2], 0.95.
As to `Cc1ccc2c(c1)C1(CC2)C(=O)NC(=O)NC1=O`, the values for the fold change (FC) in test [1] and in test [2] were 0.06 and 0.87, respectively. Also, the Activity in test [5] was less than 10%. Besides, the inhibition in test [6] is more than 40%.
As to `CCN1C(=O)NC(=O)C2(CCc3ccccc32)C1=O` (stereo in doubt; 1i-1), the fold change (FC) in test [1] came out at 0.05; in test [2], 0.86.
For the compound `O=C1NC(=O)C2(CCc3ccc(Br)cc32)C(=O)N1`, the fold change (FC) in test [1] amounted to 0.05; in test [2], 0.9. Further, the Activity in test [5] was less than 10%. Moreover, the inhibition in test [6] was more than 40%.
Consider `CN1C(=O)NC(=O)C2(CCCCc3ccccc32)C1=O` (stereo in doubt; 3h-1), for which the fold change (FC) in test [1] is 0.32; in test [2] it was 0.93.
On to `O=C1NC(=O)C2(CCc3ccc(Cl)cc32)C(=O)N1`, for which the fold change (FC) came out at 0.15 in test [1] and 0.88 in test [2]. Besides, the Activity in test [5] was less than 10%. In addition, the inhibition in test [6] was more than 40%.
Regarding `O=C1NC(=O)C2(CCc3ccc(F)cc32)C(=O)N1`, the fold change (FC) was 0.07 in test [1] and 0.73 in test [2]. The Activity in test [5] is less than 10%. In test [6], this compound showed an inhibition of more than 40%.
For the compound `N=C1NC(=O)C2(CCc3ccc(Br)cc32)C(=O)N1` (stereo not given), the fold change (FC) came out at 0.03 in test [1] and 0.53 in test [2]. Further, in test [5], the Activity is less than 10%. The compound also had an inhibition in test [6] of more than 40%.
Consider `COc1ccc2c(c1)C1(CC2)C(=O)NC(=O)NC1=O`, for which the results for the fold change (FC) in test [1] and in test [2] were 0 and 0.69, respectively. In addition, the Activity in test [5] was less than 10%. In test [6], the inhibition was more than 40%.
For the compound `O=C1NC(=S)NC(=O)C12CCc1ccc(Br)cc12`, the fold change (FC) in test [1] stood at 0.43; in test [2] it was 0.74. Also, in test [5], the Activity is less than 10%. The compound further showed an inhibition in test [6] of more than 40%.
Turning to `CN1C(=O)NC(=O)C2(CCCc3ccccc32)C1=O` (stereo in doubt; 2h-2), the figures for the fold change (FC) in test [1] and in test [2] were -0.01 and 0.8, respectively.
On to `N=C1NC(=O)C2(CCc3ccc(F)cc32)C(=O)N1` (stereo not given), for which the fold change (FC) in test [1] is -0.02; in test [2] it was 0.58. Besides, the Activity in test [5] is less than 10%. The compound further yielded an inhibition in test [6] of more than 40%.
`CCCN1C(=O)NC(=O)C2(CCc3ccccc32)C1=O` (stereo in doubt; 1j-1): the fold change (FC) in test [1] stood at 0.31; in test [2], 0.95.
Consider `O=C1NC(=O)C2(CC(O)c3ccccc32)C(=O)N1` (stereo in doubt; 1t-2), for which the fold change (FC) in test [1] is 0.02; in test [2] it was 0.55. The outcome in test [5] was inactive. This compound displayed an inhibition in test [6] of 45%.
The matching figures for `COc1ccc2c(c1)C1(CC2)C(=O)NC(=S)NC1=O`: 0.2, 1.04, less than 10% and more than 40%.
The matching figures for `Cc1ccc2c(c1)C1(CC2)C(=O)NC(=S)NC1=O`: 0.02, 0.94, less than 10% and more than 40%.
As for `N#CSC1CC2(C(=O)NC(=O)NC2=O)c2ccccc21` (stereo in doubt; 1y-2), the fold change (FC) in test [1] was 0.3; in test [2], 0.67.
For the compound `CC1CC2(C(=O)NC(=O)NC2=O)c2ccccc21` (stereo in doubt; 11g-2), the fold change (FC) in test [1] is 0.15; in test [2] it was 0.99.
The matching figures for `O=C1NC(=S)NC(=O)C12CCc1ccccc12`: 0.02 and 0.78.
On to `CC1Cc2ccccc2C12C(=O)NC(=O)NC2=O` (stereo in doubt; 10g-1), for which the values for the fold change (FC) in test [1] and in test [2] were 0.06 and 0.9, respectively.
As for `O=C1NC(=O)C2(CC(O)c3ccccc32)C(=O)N1` (stereo in doubt; 1t-1), the fold change (FC) in test [1] came out at 0; in test [2], 0.98.
In the case of `CN1C(=O)NC(=O)C2(CCCc3ccccc32)C1=O` (stereo in doubt; 2h-1), the results for the fold change (FC) in test [1] and in test [2] were 0.13 and 0.9, respectively.
Consider `CC1Cc2ccccc2C12C(=O)NC(=O)NC2=O` (stereo in doubt; 10g-2), for which the fold change (FC) in test [1] worked out at 0.13; in test [2], 0.95.

Source of the values: ChEMBL document CHEMBL6134857, “Novel Spiro-Barbiturates Can Reverse the Action of General Anesthetics on the GABAAR” (J Med Chem, 2025).
